By IC50 is commonly meant the midpoint of a concentration-inhibition curve.

The values below come from patent US11214578B2, “Urea/carbamates FAAH MAGL or dual FAAH/MAGL inhibitors and uses thereof” (Northeastern University, priority 2014, dated 2022).

Type in all cases: biochemical
Test [1] has as its target T1, Human MAGL (hMAGL) (Homo sapiens, UniProt Q99685).
T1 construct: hexahistidine; made in house; host or cells: E. coli
T1 sequence (Q99685 1-303): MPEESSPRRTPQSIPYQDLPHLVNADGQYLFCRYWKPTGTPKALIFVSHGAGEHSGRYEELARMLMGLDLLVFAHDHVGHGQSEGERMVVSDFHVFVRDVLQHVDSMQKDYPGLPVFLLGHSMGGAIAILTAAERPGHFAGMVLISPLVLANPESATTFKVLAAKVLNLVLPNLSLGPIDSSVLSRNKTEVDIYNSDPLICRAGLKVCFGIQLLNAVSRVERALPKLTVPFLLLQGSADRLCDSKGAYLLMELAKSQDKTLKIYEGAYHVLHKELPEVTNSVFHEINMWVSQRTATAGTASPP
Kind of test: Fluorescent assay protocol for hMAGL (AHMMCE substrate). To be noted: recombinant human MAGL, AHMMCE substrate, 15 min preincubation; read-out: IC50 hMAGL. Put shortly: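 Hydrolysis of AHMMCE by human MAGL was monitored at 25°C for 120 min, with fluorescence at 360/460 nm recorded every 15 min and converted to 4-methylcoumarin using external standards. IC50 values were derived from triplicate wells at each inhibitor concentration.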

The target in test [2] is T2, Rat MAGL (rMAGL) (Rattus norvegicus, UniProt Q8R431).
T2 construct: made in house; host or cells: E. coli
T2 sequence (Q8R431 1-303): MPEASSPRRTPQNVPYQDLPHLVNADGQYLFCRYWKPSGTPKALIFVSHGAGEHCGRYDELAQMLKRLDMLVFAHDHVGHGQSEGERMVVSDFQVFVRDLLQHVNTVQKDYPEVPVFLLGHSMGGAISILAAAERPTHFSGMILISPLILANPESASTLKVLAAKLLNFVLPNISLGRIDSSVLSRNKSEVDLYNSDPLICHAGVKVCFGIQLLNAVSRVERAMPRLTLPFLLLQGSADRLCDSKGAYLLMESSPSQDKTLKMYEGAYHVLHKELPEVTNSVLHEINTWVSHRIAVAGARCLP
The test can be described thus: Fluorescent assay protocol for rMAGL. To be noted: recombinant rat MAGL, procedure as for hMAGL; read-out: IC50 rMAGL. The method, boiled down:
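Rat MAGL run as for the human enzyme: AHMMCE substrate hydrolysis to fluorescent coumarin followed at 25° C. for 120 min, read every 15 min at 360/460 nm.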

Test [3] addresses T3, Human FAAH (MBPΔTMhFAAH) (Homo sapiens, UniProt O00519).
T3 construct: made in house; host or cells: E. coli (pMALcE4 vector)
T3 sequence (O00519 30-579 limits assumed): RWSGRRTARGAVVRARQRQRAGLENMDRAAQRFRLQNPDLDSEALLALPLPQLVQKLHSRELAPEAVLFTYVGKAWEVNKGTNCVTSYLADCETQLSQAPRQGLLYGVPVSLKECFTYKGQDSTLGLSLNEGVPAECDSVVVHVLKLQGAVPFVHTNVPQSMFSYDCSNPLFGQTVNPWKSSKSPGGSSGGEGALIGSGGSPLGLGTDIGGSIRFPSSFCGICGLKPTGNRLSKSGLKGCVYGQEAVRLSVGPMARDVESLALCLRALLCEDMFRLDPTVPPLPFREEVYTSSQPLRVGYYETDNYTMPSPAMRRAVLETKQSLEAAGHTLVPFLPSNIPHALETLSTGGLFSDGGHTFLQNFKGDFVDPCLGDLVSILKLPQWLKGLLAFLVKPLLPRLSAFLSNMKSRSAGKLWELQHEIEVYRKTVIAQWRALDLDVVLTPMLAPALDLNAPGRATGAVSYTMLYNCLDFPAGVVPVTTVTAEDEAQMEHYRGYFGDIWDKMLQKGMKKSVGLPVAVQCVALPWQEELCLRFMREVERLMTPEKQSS
The test can be described thus: Fluorescent assay protocol for hFAAH. Particulars: human FAAH (MBP fusion, ΔTM), procedure as for rFAAH. The method, boiled down: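 MBP-fused ΔTM human FAAH from E. coli, pre-incubated 15 min at 25 °C with compound in 50 mM HEPES, 1 mM EDTA, 0.1% BSA, pH 7.4 (DMSO below 8%). Substrate AAMCA 20 μM (2×Km); fluorescence (ex 360/em 460) at 3 h gave % inhibition vs uninhibited control, triplicate, IC50 fitted.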

In test [4] the target is T4, ΔTM rat FAAH (Rattus norvegicus, UniProt P97612).
T4 construct: Preparation of Transmembrane Domain-Deleted Rat FAAH (ΔTM rFAAH); made in house; host or cells: E. coli
T4 sequence (P97612 30-579 limits assumed): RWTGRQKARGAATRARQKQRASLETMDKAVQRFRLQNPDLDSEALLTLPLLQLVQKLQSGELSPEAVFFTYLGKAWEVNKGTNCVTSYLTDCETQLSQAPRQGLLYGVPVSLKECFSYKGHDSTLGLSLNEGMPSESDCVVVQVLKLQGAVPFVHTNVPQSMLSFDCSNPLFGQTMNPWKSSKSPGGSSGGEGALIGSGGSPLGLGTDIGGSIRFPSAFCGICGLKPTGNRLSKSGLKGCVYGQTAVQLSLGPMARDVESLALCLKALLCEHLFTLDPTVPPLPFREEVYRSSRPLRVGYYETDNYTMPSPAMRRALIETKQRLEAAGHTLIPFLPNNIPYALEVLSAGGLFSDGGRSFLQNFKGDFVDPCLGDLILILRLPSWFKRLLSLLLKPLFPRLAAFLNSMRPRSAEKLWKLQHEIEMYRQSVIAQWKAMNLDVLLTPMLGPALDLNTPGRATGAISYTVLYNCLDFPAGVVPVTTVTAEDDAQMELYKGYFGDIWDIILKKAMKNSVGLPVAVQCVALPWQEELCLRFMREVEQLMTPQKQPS
Kind of test: Fluorescent assay protocol for ΔTM rat FAAH (AAMCA substrate). Particulars: 15 min preincubation, read-out: IC50 rFAAH. Put shortly:
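ΔTM rat FAAH (15 μg) was pre-incubated 15 min at 25° C with compound (screening at 1, 10 and 100 μM), then reacted with the fluorigenic substrate AAMCA. Percent inhibition came from fluorescence at 3 h (linear kinetics) relative to no-inhibitor controls, in triplicate.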

Bounds are passed on as bounds.

`CC(c1ccccc1)N1CCN(C(=O)Oc2cccc(C#N)c2)CC1` (stereo not drawn) [Example 36, 3-cyanophenyl 4-(1-phenylethyl)piperazine-1-carboxylate]: the IC50 in test [1] was over 1000 nM; in test [2], over 1000 nM; in test [3] it was 10 to 100 nM; in test [4], 10 to 100 nM.
Take `N#Cc1cc(O)cc(OC(=O)N2CCN(C(c3ccccc3)c3ccccc3)CC2)c1` [Example 38, 3-cyano-5-hydroxyphenyl 4-benzhydrylpiperazine-1-carboxylate]: the IC50 is over 1000 nM in test [1], over 1000 nM in test [2], 110 to 1000 nM in test [3] and 110 to 1000 nM in test [4].
On to `O=C(Oc1cccc(Cl)n1)N1CCN(C(c2ccccc2)c2ccccc2)CC1` [Example 39, 6-chloropyridin-2-yl 4-benzhydrylpiperazine-1-carboxylate], for which the IC50 in test [1] is over 1000 nM; in test [2], over 1000 nM; in test [3], 110 to 1000 nM; in test [4], 110 to 1000 nM.
`N#Cc1ccnc(OC(=O)N2CCN(C3c4ccccc4-c4ccccc43)CC2)c1` [Example 42, 4-cyanopyridin-2-yl 4-(9H-fluoren-9-yl)piperazine-1-carboxylate]: the IC50 is 10 to 100 nM in test [1], 10 to 100 nM in test [2], over 1000 nM in test [3] and over 1000 nM in test [4].
For the compound `N#Cc1cccnc1OC(=O)N1CCN(C2c3ccccc3-c3ccccc32)CC1` [Example 43, 3-cyanopyridin-2-yl 4-(9H-fluoren-9-yl)piperazine-1-carboxylate], the IC50 in test [1] is 10 to 100 nM; in test [2] it was 10 to 100 nM; in test [3], over 1000 nM; in test [4], over 1000 nM.
Take `N#Cc1ccc(F)c(OC(=O)N2CCC(Cc3ccccc3)CC2)c1` [Example 45, 5-Cyano-2-fluorophenyl 4-benzylpiperidine-1-carboxylate]: the IC50 in test [1] was over 1000 nM; in test [2], over 1000 nM; in test [3], 10 to 100 nM; in test [4], 10 to 100 nM.
Regarding `N#Cc1cccc(OC(=O)N2CCC(=C(c3ccccc3)c3ccccc3)CC2)c1` [Example 47, 3-cyanophenyl 4-(diphenylmethylene)piperidine-1-carboxylate], the IC50 in test [1] is over 1000 nM; in test [2] it was over 1000 nM; in test [3], 10 to 100 nM; in test [4] it was 10 to 100 nM.
For `COC(=O)c1cccc(OC(=O)N2CCC(=C(c3ccccc3)c3ccccc3)CC2)c1` [Example 48, 3-(methoxycarbonyl)phenyl 4-(diphenylmethylene)piperidine-1-carboxylate], the IC50 is over 1000 nM in test [1], over 1000 nM in test [2], 10 to 100 nM in test [3] and 110 to 1000 nM in test [4].
For the compound `N#Cc1cccc(OC(=O)N2CCC(OC(c3ccc(Cl)cc3)c3cccnc3Cl)CC2)c1` (stereo not drawn) [Example 53, 3-cyanophenyl 4-((4-chlorophenyl)(2-chloropyridin-3-yl)methoxy)piperidine-1-carboxylate], the IC50 in test [1], in test [2], in test [3] and in test [4] was 10 to 100 nM throughout.
Take `O=C(Oc1cccc(Cl)n1)N1CCC(C(c2ccccc2)c2ccccc2)CC1` [Example 54, 6-Chloropyridin-2-yl 4-(benzhydryl)piperidine-1-carboxylate]: the IC50 was in the range of 110 to 1000 nM in test [1], 110 to 1000 nM in test [2], 10 to 100 nM in test [3] and 110 to 1000 nM in test [4].
On to `COC(=O)c1cccc(OC(=O)N2CCC(OC(c3ccccc3)c3ccccc3)CC2)c1` [Example 55, 3-(methoxycarbonyl)phenyl 4-(benzhydryloxy)piperidine-1-carboxylate], for which the IC50 was 10 to 100 nM in test [1], 110 to 1000 nM in test [2], 10 to 100 nM in test [3] and 10 to 100 nM in test [4].
On to `N#Cc1ccc(F)c(OC(=O)N2CCC(OC(c3ccccc3)c3ccccc3)CC2)c1` [Example 56, 5-cyano-2-fluorophenyl 4-(benzhydryloxy)piperidine-1-carboxylate], for which the IC50 in test [1], in test [2], in test [3] and in test [4] was 110 to 1000 nM each time.
As to `O=C(Oc1cccc(Cl)n1)N1CCC(OC(c2ccccc2)c2ccccc2)CC1` [Example 57, 6-chloropyridin-2-yl 4-(benzhydryloxy)piperidine-1-carboxylate], the IC50 in test [1] is 10 to 100 nM; in test [2] it was 10 to 100 nM; in test [3] it was over 1000 nM; in test [4], over 1000 nM.
Take `N#Cc1cccc(OC(=O)N2CCC(S(=O)(=O)c3ccc(Br)cc3)CC2)c1` [Example 59, 3-Cyanophenyl 4-(4-bromophenylsulfonyl)piperidine-1-carboxylate]: the IC50 in test [1] is 10 to 100 nM; in test [2] it was 10 to 100 nM; in test [3] it was 10 to 100 nM; in test [4], 110 to 1000 nM.
Turning to `N#Cc1ccc(F)c(OC(=O)N2CCC(S(=O)(=O)c3ccc(Br)cc3)CC2)c1` [Example 60, 5-Cyano-2-fluorophenyl 4-(4-bromophenylsulfonyl)piperidine-1-carboxylate], the IC50 in test [1] was 10 to 100 nM; in test [2], 10 to 100 nM; in test [3], 10 to 100 nM; in test [4], 110 to 1000 nM.
As for `Cc1ccc(C#N)cc1OC(=O)N1CCC(S(=O)(=O)c2ccc(Br)cc2)CC1` [Example 61, 5-Cyano-2-methylphenyl 4-(4-bromophenylsulfonyl)piperidine-1-carboxylate], the IC50 is over 1000 nM in test [1], 10 to 100 nM in test [2], 10 to 100 nM in test [3] and 10 to 100 nM in test [4].
`COc1ccc(C#N)cc1OC(=O)N1CCC(S(=O)(=O)c2ccc(Br)cc2)CC1` [Example 62, 5-Cyano-2-methoxyyphenyl 4-(4-bromophenylsulfonyl)piperidine-1-carboxylate]: the IC50 in test [1] was over 1000 nM; in test [2], 10 to 100 nM; in test [3], 10 to 100 nM; in test [4], 10 to 100 nM.
Regarding `O=C(Oc1c(F)cccc1F)N1CCC(S(=O)(=O)c2ccc(Br)cc2)CC1` [Example 63, 2,6-Difluorophenyl 4-(4-bromophenylsulfonyl)piperidine-1-carboxylate], the IC50 was 110 to 1000 nM in test [1], 110 to 1000 nM in test [2], over 1000 nM in test [3] and over 1000 nM in test [4].
